The results in this text go back to US20120077876A1, “Method For Improved Bioactivation Of Pharmaceuticals” (Dritte Patentportfolio Beteiligungsgesellschaft Mbh & Co. KG, priority 2009, published 2012).

Usually Km stands for the substrate concentration at which the rate is half of its maximum.

The target of data set [1] is T1, peptidylglycine α-amidating monooxygenase (PAM) (Rattus norvegicus, UniProt P14925).
T1 construct: purchased Unigene Laboratories, Inc. (New Jersey, USA)
T1 sequence (P14925 36-871 isoform P14925-2 limits assumed): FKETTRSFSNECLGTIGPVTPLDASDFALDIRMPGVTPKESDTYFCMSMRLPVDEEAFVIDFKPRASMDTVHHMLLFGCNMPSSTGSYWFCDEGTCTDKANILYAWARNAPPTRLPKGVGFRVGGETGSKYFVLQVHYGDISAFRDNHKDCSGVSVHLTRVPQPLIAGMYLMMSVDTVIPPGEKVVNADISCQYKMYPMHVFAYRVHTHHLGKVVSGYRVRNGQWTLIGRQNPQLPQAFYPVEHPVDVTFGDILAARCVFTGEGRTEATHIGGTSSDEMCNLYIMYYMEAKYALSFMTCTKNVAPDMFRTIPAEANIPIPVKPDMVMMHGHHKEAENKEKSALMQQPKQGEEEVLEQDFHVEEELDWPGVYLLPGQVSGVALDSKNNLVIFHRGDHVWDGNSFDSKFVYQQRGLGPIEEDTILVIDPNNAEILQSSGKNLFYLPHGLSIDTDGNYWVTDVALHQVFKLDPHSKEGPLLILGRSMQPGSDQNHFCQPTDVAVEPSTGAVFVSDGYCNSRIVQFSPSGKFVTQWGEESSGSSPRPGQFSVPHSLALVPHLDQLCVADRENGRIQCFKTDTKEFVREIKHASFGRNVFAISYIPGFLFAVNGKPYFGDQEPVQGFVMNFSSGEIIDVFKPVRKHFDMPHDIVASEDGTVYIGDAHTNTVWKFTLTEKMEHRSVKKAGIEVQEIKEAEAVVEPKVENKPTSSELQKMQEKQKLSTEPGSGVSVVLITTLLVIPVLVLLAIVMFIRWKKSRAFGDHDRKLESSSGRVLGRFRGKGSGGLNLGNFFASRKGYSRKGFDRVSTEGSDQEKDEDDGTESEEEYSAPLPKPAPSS
Briefly: PAM assay with colorimetric determination of glyoxylate formation. To be noted: for formation of glyoxylate as the cleavage product of the PAM catalysis: colorimetric assay, substrate 0.1 mM or 1 mM, pH 6.0 and pH 7.4, 37° C. The class given is biochemical. The protocol: (§1) The recombinant peptidylglycine α-amidating monooxygenase (PAM, rat, EC 1.14.17.3) that was used was provided by Unigene Laboratories, Inc. (New jersey, USA) (specific activity=5.8 10^6 U/mg protein); bovine liver catalase (EC 1.11.1.6), specific activity=12600 U/mg solid (Aldrich).
(§2) A typical incubation batch of 300 μl (total volume) contained 25000 U/ml peptidylglycine α-amidating monooxygenase (PAM, company: Unigene Laboratories), 250 U/ml catalase, 1 μM copper(II) (employed as acetate/monohydrate), 2 mM sodium ascorbate, 5 mM potassium iodide and the respective substrate in 0.1 mM or 1 mM concentration, in buffers having different pH values. The buffer system used was 30 mM MES for the incubation at pH 6.0 and 50 mM HEPES for the incubation at pH 7.4. The pH value was adjusted in each case with diluted sodium hydroxide. The incubation was carried out at 37° C. in the shaking water bath for 60 minutes, 100 μl was withdrawn, and the reaction was stopped with 50 μl 10% TFA(aq)/acetonitrile (2:3). The remaining batch was incubated for another 180 minutes at 37° C. and stopped with 100 μl 10% TFA(aq)/acetonitrile (2:3).
(§3) The stopped samples were shaken for 5 minutes (vortexer) and frozen at −80° C. To analyze the samples, they were thawed, shaken for 5 minutes, and the precipitated protein was centrifuged at 10000 rpm. The supernatant was used for the colorimetric glyoxylate determination and/or HPLC measurement.
200 μl of the incubation batch that was freed of protein was mixed with 20 μl of a phenylhydrazine solution (20 mg in 2 ml aqua bidest.) and shaken for 5 minutes in the shaking water bath at 37° C. […] The batch was allowed to rest for 15 minutes at room temperature and 200 μl was withdrawn for the measurement using a Plate Reader (Cary 50 UV-Vis photometer, 520 nm).
For a 5-point calibration, glyoxalic acid in concentrations of 2, 5, 10, 50 and 100 μM in a 2:1 mixture of assay buffer (pH 6.0):10% TFA(aq)/acetonitrile (2:3) was measured as described above. […]

In data set [2] the test system is cytochrome P450 (CYP450). Briefly: CYP450 substrate study, human liver microsomes and 9000 g supernatant. The data set is classed as in vitro ADME. The note with it: human liver enzyme sources, pH 6.0 and pH 7.4, NADH or NADPH, 60 or 180 minutes. The method, then:
To obtain human microsomes, human liver tissue from cancer patients of the surgical department of the University Clinic of Christian-Albrecht University was obtained who had to undergo hemihepatectomy.
The liver tissue pieces were flash-frozen in a saccharose-containing phosphate buffer (10 mM K2HPO4, 10 mM KH2PO4, 250 mM saccharose, 1 mM Na2 EDTA, pH 7.4, 4° C.). As soon as a sufficient quantity of organ parts (>3) was available, the corresponding pieces were thawed and pooled so as to compensate for differences due to interindividual variations. The tissue pieces were cut into smaller parts at 4° C., washed several times with buffer solution (without EDTA), and processed into a suspension using a homogenizer. The microsomes and 9000 g supernatant were further obtained from this suspension by differential ultracentrifugation. For storage, the resulting preparations were aliquotted and frozen at −80° C.
A typical incubation bath of 500 μl (total volume) contained 0.3 mg protein (pork or human liver enzyme source), 0.1 mM (or 1 mM) test compound in 100 mM phosphate buffer (pH 6.0 or pH 7.4) and 1 mM NADH (or NADPH). The incubation was started after a 5-minute pre-incubation of the enzyme and test compound in buffer, adding NADH (or NADPH), and the product was shaken for 60 minutes or 180 minutes at 37° C. in the shaking water batch. […]
A general note: Liver microsomes are vesicles of endoplasmic reticulum, rich in cytochrome P450 enzymes.

In data set [3] the target is T1, peptidylglycine α-amidating monooxygenase (PAM). Briefly: PAM substrate kinetics (KM and Vmax) by HPLC. The data set is classed as biochemical. To be noted: for Vmax value: pH 6.0, 30 minutes incubation, n=2. The protocol: as §1
as §2, with “The incubation was carried out at 37° C. in the shaking water bath for 60 minutes, 100 μl was withdrawn, and the reaction was stopped with 50 μl 10% TFA(aq)/acetonitrile (2:3).” left out
as §3
For the KM and Vmax determination, 100 μl batches were treated at pH 6.0 under the aforementioned conditions, however with the difference that the incubation time was 30 minutes.
HPLC Analysis for Separating O-carboxymethyl benzamidoxime (1) and benzamidoxime (2)
(§4) For the calibration, benzamidoxime was dissolved in eight concentrations of 0.1-500 μM, dissolved in assay buffer (30 mM MES, 1 μM copper(II) acetate, 2 mM sodium ascorbate, 5 mM potassium iodide, pH 6.0), and measured using the aforementioned HPLC method. […]
(§5) For the calibration, N-hydroxy-N′,N″-diphenyl guanidine (4) was dissolved in eight concentrations of 0.1-500 μM, dissolved in assay buffer (30 mM MES, […], 2 mM sodium ascorbate, 5 mM potassium iodide, pH 6.0), and measured using the aforementioned HPLC method.

The test system of data set [4] is cytochrome P450 (CYP450). Briefly: CYP450 substrate study, porcine liver microsomes and 9000 g supernatant. The data set is classed as in vitro ADME. The note with it: pork liver enzyme sources, pH 6.0 and pH 7.4, NADH or NADPH, 60 or 180 minutes. The method, then: The pork livers were procured from a local butcher (Bordesholm) and the organs were transported directly after slaughter in an ice-cooled 20 mM phosphate buffer (1 mM Na2 EDTA, pH 7.4). For further processing, the liver lobes were first perfused with 50 mM phosphate buffer (1 mM Na2 EDTA, pH 7.4) and washed. The tissue was cut into pieces and run through a commercially available meat grinder. The suspension was diluted an equal volume of phosphate buffer and homogenized using a flow homogenizer. The microsomes and 9000 g supernatant were further obtained by differential ultracentrifugation. For storage, the resulting preparations were aliquotted and frozen at −80° C.
A typical incubation bath of 500 μl (total volume) contained 0.3 mg protein (pork or human liver enzyme source), 0.1 mM (or 1 mM) test compound in 100 mM phosphate buffer (pH 6.0 or pH 7.4) and 1 mM NADH (or NADPH). The incubation was started after a 5-minute pre-incubation of the enzyme and test compound in buffer, adding NADH (or NADPH), and the product was shaken for 60 minutes or 180 minutes at 37° C. in the shaking water batch. The batches were stopped by adding the same volume of acetonitrile, shaken using the vortexer, and frozen at −80° C.
To analyze the samples, they were thawed, shaken 5 minutes using the vortexer, and the protein was separated by means of 5-minute centrifugation at 10000 rpm. […]

Substrate in data set [5]: N/C(=N\OCC(=O)O)c1ccccc1
Briefly: PAM substrate kinetics (KM and Vmax) by HPLC. The class given is biochemical, rat. To be noted: other: pH 6.0, 30 minutes incubation, two independent experiments (n=2), 37.0 °C. The method, then: as §1
(§6) A typical incubation batch of 300 μl (total volume) contained 25000 U/ml peptidylglycine α-amidating monooxygenase (PAM, company: Unigene Laboratories), 250 U/ml catalase, 1 μM copper(II) (employed as acetate/monohydrate), 2 mM sodium ascorbate, 5 mM potassium iodide and the respective substrate in 0.1 mM or 1 mM concentration, in buffers having different pH values. The buffer system used was 30 mM MES for the incubation at pH 6.0 and 50 mM HEPES for the incubation at pH 7.4. The pH value was adjusted in each case with diluted sodium hydroxide. […]
as §4, §5

Substrate in data set [6]: O=C(O)CON=C(Nc1ccccc1)Nc1ccccc1
Briefly: PAM substrate kinetics (KM and Vmax) by HPLC. The class given is biochemical, rat. To be noted: other: pH 6.0, 30 minutes incubation, two independent experiments (n=2), 37.0 °C. The method, then:
as §1, §6, §4, §5

Regarding `N/C(=N\OCC(=O)O)c1ccccc1` [compound 1, O-carboxymethyl benzamidoxime], in data set [1], the “formation of glyoxylate as the cleavage product of the PAM catalysis” value is reported as “verified in an concentration-dependent manner”. Also, the “conversion at the pH optimum of PAM (pH 6.0) in comparison with incubation at pH 7.4” value in data set [1] (colorimetric glyoxylate determination, FIG. 1) was “considerably higher conversions”. Further, the “detection of O-dealkylated metabolite and its N-reduction product by HPLC” value with cytochrome P450 (CYP450) [2] and in the data set on cytochrome P450 (CYP450) [4] was “neither benzamidoxime possible prodrug of benzamidine) nor benzamidine were detected” each time. In data set [3], the Vmax value stood at 393±40 nmol min^−1 mg^−1 PAM.

Consider `O=C(O)CON=C(Nc1ccccc1)Nc1ccccc1` [compound 3, N-carboxymethoxy-N′,N″-diphenyl guanidine], for which the “formation of glyoxylate as the cleavage product of the PAM catalysis” value in data set [1] is “comparable to those of the amidoxime model compound 1”. In addition, in data set [3] (comparison of Vmax), the “conversion rate in comparison with the amidoxime prodrug 1” value is on record as “comparable”. Further, the Vmax value in data set [3] was found to be 373 ± 53 nmol min⁻¹ mg⁻¹ PAM.

B1: peptidylglycine α-amidating monooxygenase (PAM) (Rattus norvegicus) (protein)
chain: T1 sequence (P14925 36-871 isoform P14925-2 limits assumed)
notes: purchased Unigene Laboratories, Inc. (New Jersey, USA)
With B1, the Km in data set [5] was found to be 307 ± 80 µM; in data set [6] it was 37 ± 5 µM.
